*1 amine or outer side, *2 acyl side, *3 side chain or, on linkers, in order; H or OH if unused. Where a SMILES comes first, the peptide text is derived from it. Side-chain parts run from the residue outwards. [ ]: non-standard residue; d: D form. The star is where a group is joined. C18 diacid = O=C(O)CCCCCCCCCCCCCCCCC(=O)*; γGlu = O=C(O)[C@H](CCC(=O)[*:2])N[*:1]; Pentanoyl = CCCCC(=O)*; AEEA = NCCOCCOCC(=O)O; Aib = CC(C)(N)C(=O)O

In one data set the target is T1, human CRF2a receptor (Homo sapiens, UniProt Q13324).
T1 construct: expressed in transfected cells; host or cells: TeloHEAC cells
T1 sequence (Q13324 1-411): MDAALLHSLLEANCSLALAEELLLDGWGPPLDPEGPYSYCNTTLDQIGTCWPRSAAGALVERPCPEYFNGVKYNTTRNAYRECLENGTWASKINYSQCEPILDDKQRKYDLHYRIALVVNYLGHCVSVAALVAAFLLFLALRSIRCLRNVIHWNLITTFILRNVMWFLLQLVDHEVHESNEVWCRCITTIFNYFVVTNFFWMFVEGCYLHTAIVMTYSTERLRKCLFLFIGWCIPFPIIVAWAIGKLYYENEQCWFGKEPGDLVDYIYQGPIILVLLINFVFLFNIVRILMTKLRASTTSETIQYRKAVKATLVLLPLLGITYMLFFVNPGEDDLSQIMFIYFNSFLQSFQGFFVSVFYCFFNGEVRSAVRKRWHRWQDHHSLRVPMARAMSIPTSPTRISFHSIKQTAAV
Kind of data set: Activity at human CRF2a receptor, cAMP functional assay in TeloHEAC cells. As to conditions: TeloHEAC cells stably expressing human CRF2a receptor, relative to urocortin 2 (100 nM = 100%). Format: cell-based. The procedure, abridged: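 cAMP accumulation was measured by HTRF 665/620 nm ratio after 30 min at 37° C compound exposure (16 twofold dilutions) of CRF2a-expressing TeloHEAC cells, 10000/well, in HEPES-buffered HBSS plus IBMX. Activity was normalised to urocortin 2 at 100 nM (100%), and EC50 was the concentration giving half-maximal activation.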

Another data set deals with Sprague Dawley rats. Kind of data set: Effect on systolic blood pressure, telemetry in Sprague Dawley rats. Format: in vivo, rat. The settings on record: 0.1 mg/kg SC; for Systolic blood pressure (Mean) % change from baseline, 8 h / Systolic blood pressure (Mean) % change from baseline, 12 h / Systolic blood pressure (Mean) % change from baseline, 24 h: n=2; for Duration of action: last time point with an effect on BP still observed. The procedure, abridged: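 Values are % change from a 1 h pre-dose baseline in systolic pressure, tracked by telemetry for up to 48 hours after a single 0.1 mg/kg subcutaneous dose. Rats (Sprague Dawley, n=2 per peptide) carried aortic catheters and recovered at least 10 days post-surgery; duration of action marks the last time point still showing an effect.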

A short description of data set [1]: Chemical stability in buffer (pH 7.4 / pH 4.5), % purity loss. As to conditions: 40° C. vs 5° C., 14 or 28 days; for Buffer stability pH 7.4 % purity loss: 100 mM phosphate buffer pH 7.4. Format: physicochemical. Summed up: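 LC-UV gave % loss after 14 or 28 days of storage at 5 °C or 40 °C. Samples were diluted supernatants from compound incubated 1 h at room temperature at 10 mg/mL target, in 100 mM acetate pH 4.5 or 100 mM phosphate pH 7.4.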

Another data set has as its target T2, CFR1R receptor (Homo sapiens, UniProt P34998).
T2 construct: host or cells: CHO-K1 (clone 2)
T2 sequence (P34998 24-415): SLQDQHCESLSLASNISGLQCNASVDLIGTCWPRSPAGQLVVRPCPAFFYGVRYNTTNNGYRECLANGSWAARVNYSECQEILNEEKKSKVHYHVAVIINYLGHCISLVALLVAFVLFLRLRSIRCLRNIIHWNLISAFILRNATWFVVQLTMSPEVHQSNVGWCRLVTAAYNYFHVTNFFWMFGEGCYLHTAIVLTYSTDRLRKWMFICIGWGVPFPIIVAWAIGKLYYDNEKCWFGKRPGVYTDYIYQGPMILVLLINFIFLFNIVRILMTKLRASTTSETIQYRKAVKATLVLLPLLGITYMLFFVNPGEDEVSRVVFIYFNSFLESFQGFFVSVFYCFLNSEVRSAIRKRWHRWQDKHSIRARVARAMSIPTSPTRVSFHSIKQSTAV
Kind of data set: Activity at anti-target CFR1R receptor, cAMP assay in CRF1R-overexpression CHO-K1 cells. Format: cell-based. As to conditions: 100% = Sauvagine at 100 nM; for EC50: cAMP. The procedure, abridged: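 Grow clone 2 to near confluence at 37° C. under 5% CO2 in F12 (Hams) with 10% FBS and G418, harvest, and freeze in 10% DMSO. Thaw and plate at 4000 cells/well. Then proceed per the TeloHAEC method, normalising to Sauvagine 100 nM as maximum.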

Data set [2] can be described thus: In vitro subcutaneous tissue supernatant (SCts) stability and metabolite identification, rat. Format: in vitro ADME. Set-up: remaining at 2 h: dose or concentration left out as unconfirmed. As to conditions: male, Sprague Dawley; rat subcutaneous tissue supernatant (SCts), 37° C, 2 h.
Data set [3] in a line: Pharmacokinetics in male Sprague Dawley rats after subcutaneous administration. Format: in vivo. As to conditions: plasma, rat, IV, 0.05 mg/kg.

With `CC[C@H](C)[C@H](NC(C)=O)C(=O)N[C@H](C(=O)N[C@@H](CC(C)C)C(=O)N[C@@H](CO)C(=O)N[C@@H](CC(C)C)C(=O)N[C@@H](CC(=O)O)C(=O)N[C@@H](C(=O)N1CCC[C@H]1C(=O)N[C@H](C(=O)N[C@@H](CCCCN)C(=O)N[C@@H](CC(C)C)C(=O)N[C@@H](CCCCNC(=O)CC[C@H](NC(=O)CCCCCCCCCCCCCCCCC(=O)O)C(=O)O)C(=O)N[C@@H](CCCCN)C(=O)N[C@H](C(=O)N[C@@H](CC(C)C)C(=O)N[C@@H](CC(C)C)C(=O)N[C@@H](CCC(=O)O)C(=O)N[C@@H](CCC(N)=O)C(=O)N[C@@H](CCC(=O)O)C(=O)N[C@@H](CCCCN)C(=O)N[C@@H](CCC(N)=O)C(=O)N[C@@H](CCCCN)C(=O)N[C@@H](C)C(=O)N[C@@H](CCC(N)=O)C(=O)N[C@@H](CCCNC(=N)N)C(=O)N[C@@H](CCC(=O)O)C(=O)N[C@@H](CCC(N)=O)C(=O)N[C@@H](C)C(=O)N[C@@H](CCC(=O)O)C(=O)N[C@H](C(=O)N[C@@H](CC(N)=O)C(=O)NC(C)(C)C(=O)N[C@@H](CCC(N)=O)C(=O)N[C@H](C(=O)N[C@@H](CC(C)C)C(=O)N[C@@H](C)C(=O)N[C@@H](CCC(N)=O)C(=O)N[C@H](C(N)=O)C(C)C)[C@@H](C)CC)[C@@H](C)O)[C@@H](C)CC)[C@@H](C)CC)C(C)C)C(C)C` [compound 189] (Ac-IVLSLD[dV]PIKLK([γGlu-C18 diacid])KILLEQEKQKAQREQAETN[Aib]QILAQV-NH2), the EC50 at human CRF2a receptor amounted to 0.29 nM. Moreover, in the data set on Sprague Dawley rats, the “Systolic blood pressure (Mean) % change from baseline, 8 h” value was −27%; the “Systolic blood pressure (Mean) % change from baseline, 12 h” value is on record as −25%; the “Systolic blood pressure (Mean) % change from baseline, 24 h” value is −13%; the Duration of action is reported as greater than 24 h. Besides, the “Buffer stability pH 7.4 % purity loss” value in data set [1] is 0.0/Not Tested %. Also, at CFR1R receptor, the “Emax (% I)” value is recorded as 9 % I and the EC50 was greater than 250 nM. For the same molecule, in data set [2], the fraction remaining at 2 h was 67%. In data set [3], this molecule had an AUC(0-t) of 5.04 µg·h/mL and a half-life of 7.5 h.
In turn, `CCCCC(=O)N[C@H](C(=O)N[C@@H](CC(C)C)C(=O)N[C@@H](CO)C(=O)N[C@@H](CC(C)C)C(=O)N[C@@H](CC(=O)O)C(=O)N[C@@H](C(=O)N1CCC[C@H]1C(=O)N[C@H](C(=O)N[C@@H](CCCCN)C(=O)N[C@@H](CC(C)C)C(=O)N[C@@H](CCCCNC(=O)CC[C@H](NC(=O)CCCCCCCCCCCCCCCCC(=O)O)C(=O)O)C(=O)N[C@@H](CCCCN)C(=O)N[C@H](C(=O)N[C@@H](CC(C)C)C(=O)N[C@@H](CC(C)C)C(=O)N[C@@H](CCC(=O)O)C(=O)N[C@@H](CCC(N)=O)C(=O)N[C@@H](CCC(=O)O)C(=O)N[C@@H](CCCCN)C(=O)N[C@@H](CCC(N)=O)C(=O)N[C@@H](CCCCN)C(=O)N[C@@H](CCCCN)C(=O)N[C@@H](CCC(N)=O)C(=O)N[C@@H](CCCNC(=N)N)C(=O)N[C@@H](CCC(=O)O)C(=O)N[C@@H](CCC(N)=O)C(=O)N[C@@H](C)C(=O)N[C@@H](CCC(=O)O)C(=O)N[C@H](C(=O)N[C@@H](CC(N)=O)C(=O)NC(C)(C)C(=O)N[C@@H](CCC(N)=O)C(=O)N[C@H](C(=O)N[C@@H](CC(C)C)C(=O)N[C@@H](C)C(=O)N[C@@H](CCC(N)=O)C(=O)N[C@H](C(N)=O)C(C)C)[C@@H](C)CC)[C@@H](C)O)[C@@H](C)CC)[C@@H](C)CC)C(C)C)C(C)C` [compound 193] (Pentanoyl-VLSLD[dV]PIKLK([γGlu-C18 diacid])KILLEQEKQKKQREQAETN[Aib]QILAQV-NH2) had an EC50 at human CRF2a receptor of 0.17 nM. In the data set on Sprague Dawley rats, the “Systolic blood pressure (Mean) % change from baseline, 8 h” value is −20%; the “Systolic blood pressure (Mean) % change from baseline, 12 h” value is −12%; the “Systolic blood pressure (Mean) % change from baseline, 24 h” value was −8%; the Duration of action was greater than 24 h. In addition, the “Buffer stability pH 7.4 % purity loss” value in data set [1] is reported as 0.0/Not Tested %. Also, on CFR1R receptor, the “Emax (% I)” value is reported as 20 % I and the EC50 is greater than 250 nM. Also, in data set [2], the amount remaining at 2 h was determined as 56%. In data set [3], this molecule had an AUC(0-t) of 2.34 µg·h/mL and a half-life of 4.9 h.
As for `CC[C@H](C)[C@H](NC(C)=O)C(=O)N[C@H](C(=O)N[C@@H](CC(C)C)C(=O)N[C@@H](CO)C(=O)N[C@@H](CC(C)C)C(=O)N[C@@H](CC(=O)O)C(=O)N[C@@H](C(=O)N1CCC[C@H]1C(=O)N[C@H](C(=O)N[C@@H](CCCCN)C(=O)N[C@@H](CC(C)C)C(=O)N[C@@H](CCCCNC(=O)COCCOCCNC(=O)CC[C@H](NC(=O)CCCCCCCCCCCCCCCCC(=O)O)C(=O)O)C(=O)N[C@@H](CCCCN)C(=O)N[C@H](C(=O)N[C@@H](CC(C)C)C(=O)N[C@@H](CC(C)C)C(=O)N[C@@H](CCC(=O)O)C(=O)N[C@@H](CCC(N)=O)C(=O)N[C@@H](CCC(=O)O)C(=O)N[C@@H](CCCCN)C(=O)N[C@@H](CCC(N)=O)C(=O)N[C@@H](CCCCN)C(=O)N[C@@H](CCCCN)C(=O)N[C@@H](CCC(N)=O)C(=O)N[C@@H](CCCNC(=N)N)C(=O)N[C@@H](CCC(=O)O)C(=O)N[C@@H](CCC(N)=O)C(=O)N[C@@H](C)C(=O)N[C@@H](CCC(=O)O)C(=O)N[C@H](C(=O)N[C@@H](CC(N)=O)C(=O)NC(C)(C)C(=O)N[C@@H](CCC(N)=O)C(=O)N[C@H](C(=O)N[C@@H](CC(C)C)C(=O)N[C@@H](C)C(=O)N[C@@H](CCC(N)=O)C(=O)N[C@H](C(N)=O)C(C)C)[C@@H](C)CC)[C@@H](C)O)[C@@H](C)CC)[C@@H](C)CC)C(C)C)C(C)C` [compound 203] (Ac-IVLSLD[dV]PIKLK([AEEA-γGlu-C18 diacid])KILLEQEKQKKQREQAETN[Aib]QILAQV-NH2), the EC50 on human CRF2a receptor was 0.43 nM. Besides, in the data set with Sprague Dawley rats, the “Systolic blood pressure (Mean) % change from baseline, 8 h” value is −18%; the “Systolic blood pressure (Mean) % change from baseline, 12 h” value was −11%; the “Systolic blood pressure (Mean) % change from baseline, 24 h” value came out at 2%; the Duration of action is 23 h. Besides, the “Buffer stability pH 4.5 % purity loss” value in data set [1] (100 mM acetate buffer pH 4.5) is recorded as 0.0/0.0 ^ %. Also, the “Buffer stability pH 7.4 % purity loss” value in data set [1] was 0.0/0.0 ^ %. Further, at CFR1R receptor, the “Emax (% I)” value amounted to 3 % I and the EC50 is greater than 250 nM. Further, in data set [2], the amount remaining at 2 h was 65%. In data set [3], this molecule had an AUC(0-t) of 4.87 µg·h/mL and a half-life of 6.2 h.
